Several values for one entry are separate records, joined by “and”; a condition that tells them apart may be missing. Identical values can stand only once. Entries after “also recorded” stand apart in the source; their conditions may differ. Like-named read-outs stand apart in the source and are kept apart here.
Experiments:
[1] = tested on: HCV genotype Ib replicon (I389luc-ubi-neo/NS3-3′/ET) in Huh-luc/neo-ET cells; type: cell-based
Experimental: (§1) The anti-viral efficacy and cellular toxicity of non-transfected antimiR oligonucleotide in combination with approved and experimental anti-HCV therapeutics (e.g. NM283, 2′-C-methylcytidine, and/or VX-222) (or other NS5B polymerase inhibitors) was determined in the reporter cell line Huh-luc/neo-ET. This cell line harbors the persistently replicating I389luc-ubi-neo/NS3-3′/ET replicon containing the firefly luciferase gene-ubiquitin-neomycin phosphotransferase fusion protein and EMCV IRES driven NS3-5B HCV coding sequences containing the ET tissue culture adaptive mutations (E1202G, T1208I, and K1846T). Eight dilutions of non-transfected antimiR oligonucleotide (bracketing the calculated EC50) were evaluated in triplicate on duplicate sets of three plates with five dilutions of each of the control compounds (bracketing the calculated EC50). One set of plates was used for the determination of cellular toxicity and the other set of plates was used for the determination of anti-viral efficacy. The efficacy and toxicity results was quantified with firefly luciferase activity and XTT dye reduction, respectively, and the results of the assay is imported into the Prichard and Shipman MacSynergy II software program. The MacSynery II analysis includes calculation of the dose response of the two (or more) compounds when used alone followed by calculation of the expected additive level of antiviral inhibition or toxicity when the compounds are used together based on the individual dose response curves. The expected level of activity at each of the concentration data points was compared to the experimentally determined antiviral activity in the assay. The expected activity was subtracted from the realized activity, yielding a negative, zero or positive value. These values are plotted as a three dimensional representation of the data and the result is reported as a two-factor value, expressing the combined average above the expected level of activity (synergy volume) and the combined average below the expected level of activity (antagonism volume). Combination analysis was performed two or more times for each pair of test compound and control substance.
(§2) The reporter cell line Huh-luc/neo-ET was obtained from Dr. Ralf Bartenschlager (Department of Molecular Virology, Hygiene Institute, University of Heidelberg, Germany) by ImQuest BioSciences. This cell line harbors the persistently replicating 1389luc-ubi-neo/NS3-3′IET replicon containing the firefly luciferase gene-ubiquitinneomycin phosphotransferase fusion protein and EMCV IRES driven NS3-5B HCV coding sequences containing the ET tissue culture adaptive mutations (E 1202G, T12081, and KI846T). A stock culture of the Huh-luc/neo-ET was expanded by culture in DMEM supplemented with 10% FBS, 2 mM glutamine, penicillin (100 IU/mL)/streptomycin (100 f·Ig/mL) and IX nonessential amino acids plus I mg/ml G418. Prior to plating, the cells were split 1:4 and cultured for two passages in the same medium plus 250 f·Ig/mL G418. The cells were treated with trypsin and enumerated by staining with trypan blue and seeded into 96-well tissue culture plates at a cell culture density 5.0×10^3 cells per well in a volume of 85 f·IL per well and incubated at […] in an environment of 5% CO2 for 24 hours. Six plates were established for the determination of combination efficacy (EC50) and cytotoxicity (TC50) for each of the compound combinations (three plates each for efficacy and toxicity). Following the 24 hour incubation, eight 2-fold serial dilutions of SPC3649 in cell culture medium without G418 were prepared (final in well high test concentration of 1.20 μM to 2.40 μM) and added to the cells and five 2-fold or 5-fold serial dilutions of control compounds in cell culture medium without G418 were prepared and added to the cells.

[2] = tested on: Huh-luc/neo-ET HCV genotype Ib replicon cells; type: cell-based; conditions: selection with G418, 28 days
Experimental: Cell culture and Assay setup: The reporter cell line Huh-luc/neo-ET was obtained and prepare as described previously. Cells were plated into 10 cm tissue culture dishes at a density of 3×10^5 cells per plate in culture medium containing 250 μg/ml G418 and incubated for 24 hours at 37° C. in an environment of 5% C02. Following the 24 hour incubation, dilutions of SPC3649, SPC4729, or telaprevir were prepared in cell culture medium (as above) with 750 μg/ml G418. Each of the dilutions was added to duplicate plates and the plates were incubated at 37° C. in an environment of 5% CO^2. Two additional plates received cell culture medium with 750 μg/ml G418 as a no-treatment control. […] The final concentration of SPC4729 was 10.0 μM. […] Following 28 days of passage, one set of dishes was stained with crystal violet and the other set of plates was utilized for expansion and establishment of resistant cell culture stocks.
Huh-luc/neo-ET HCY genotype Ib replicon cells were cultured under selective pressure in the presence of 750 μg/mL G4 I8 with and without four independent fixed concentrations of SPC3649 anti-miR oligonucleotide, or telaprevir, or one concentration of scrambled oligonucleotide SPC4729 for 28 days in tissue culture plates. Duplicate tissue culture dishes were established and maintained for each culture condition. Medium was replaced bi-weekly during the 28 days of culture and the cells were split at the time of medium replenishment to maintain a confluent cell culture monolayer. Following four weeks in culture, cells were either fixed with methanol and stained with crystal violet or expanded for subsequent phenotypic and genotypic characterization.

[3] = tested on: Huh-luc/neo-ET cells; experiment: Cellular toxicity by XTT dye reduction in Huh-luc/neo-ET cells
Experimental: as §1
as §2, with “Following the 24 hour incubation, eight 2-fold serial dilutions of SPC3649 in cell culture medium without G418 were prepared (final in well high test concentration of 1.20 μM to 2.40 μM) and added to the cells and five 2-fold or 5-fold serial dilutions of control compounds in cell culture medium without G418 were prepared and added to the cells.” left out

[4] = tested on: HCV genotype 1b replicon NS5B M423I; type: cell-based; conditions: EC50 mutant / EC50 wild-type; mean of two experiments (individual values)
Experimental: (§3) The in vitro antiviral of miravirsen was evaluated against wild-type HCV genotype 1b replicon and HCV genotype 1b replicons constructed to contain key amino acid substitutions in NS3 protease (A156T, R155K), NS5B polymerase (S282T, M423I) and NS5A protein (Y93H) in transient transfection assays utilizing Huh 7 cells. […] Huh 7 cells were transfected with either the wild-type or the mutant RNA constructs by electroporation. Luciferase activity was measured 72 hours after compound treatment and EC50 values determined from dose-response curves. Fold resistance was expressed as the ratio of the EC50 for mutant HCV replicon to the EC50 for wild-type HCV replicon.
(§4) The in vitro antiviral of miravirsen was evaluated against wild-type HCV genotype 1b replicon and HCV replicons constructed to contain key amino acid substitutions in NS3 protease (A156T, R155K), NS5B polymerase (S282T, M423I) and NS5A protein (Y93H) in transient transfection assays. […] Huh 7 cells were transfected with either the wild type or the mutant RNA constructs by electroporation. Luciferase activity was measured 72 hours after compound treatment and EC50 values determined from dose-response curves. Fold resistance was expressed as the ratio of the EC50 for mutant HCV replicon to the EC50 for wild-type HCV replicon. Results are expressed as the mean of two individual experiments. In an initial set of experiments, the standard protocol was modified by adding compounds 24 hours after electroporation. […] In a third experiment cells were pretreated with miravirsen for 24 hours before electroporation with wild-type RNA constructs to determine if preincubation could result in increased miravirsen antiviral activity.

[5] = tested on: HCV genotype 1b replicon NS5A Y93H; type: cell-based; conditions: EC50 mutant / EC50 wild-type; mean of two experiments (individual values)
Experimental: as §3, §4

[6] = tested on: HCV genotype 1b replicon NS3 A156T; type: cell-based; conditions: EC50 mutant / EC50 wild-type; mean of two experiments (individual values)
Experimental: as §3, §4

[7] = tested on: HCV genotype 1b replicon NS5B S282T; type: cell-based; conditions: EC50 mutant / EC50 wild-type, mean of two experiments (individual values)
Experimental: as §3, §4

[8] = tested on: HCV genotype 1b replicon NS3 R155K; type: cell-based; conditions: EC50 mutant / EC50 wild-type; mean of two experiments (individual values)
Experimental: as §3, §4

[9] = in combination with ribavirin, 95% confidence level
[10] = second drug in combination with miravirsen (SPC3649), 95% confidence interval, median (≧3 experiments) or individual values
[11] = second drug in combination with miravirsen (SPC3649), overall
[12] = second drug in combination with miravirsen (SPC3649), 95% confidence interval, median or individual values

## 5′-Ts.^ocsAs.^otsas.^mCs.^oTs.^oastsAs.^otsGs.^oas.^mCs.^oA.^o-3′ [SPC4729]
[1]
  Efficacy, Synergy vol: 0.00/−177.6 μM^2%
[1]; in combination with ribavirin
  overall antiviral interaction: antagonistic
[1]; in combination with ribavirin, 95% confidence level, individual values
  Efficacy, Antag Vol: 0.00/−177.6 μM^2%
[2]
  rate of cell expansion: did not decrease the rate of cell expansion
[3]; in combination with ribavirin
  impact of combination on in vitro cytotoxicity: slight higher cytotoxicity
[3]; [9]
  Cytotoxicity, Antag Vol: −44.3 μM^2%
  Cytotoxicity, Synergy vol: 0.00 μM^2%

## CC(C)(C)C#Cc1cc(N(C(=O)[C@H]2CC[C@H](C)CC2)[C@H]2CC[C@H](O)CC2)c(C(=O)O)s1 [VX-222]
[1]; [10]
  Efficacy, Antagonism vol: −34.4 μM^2% and −4.27 μM^2% and 4.81/−34.44; μM^2% and 0.82/−4.27 μM^2%
[1]; [11]
  Interaction: Positive
[3]; [12]
  Cytotoxicity, Antagonism vol: −28.6 μM^2% and 0 μM^2%
  Cytotoxicity, Synergy vol: 0 μM^2%
[4]
  fold change in susceptibility, NS5B M423I: 4.4 fold and 4.4 (3.6, 5.2) fold

## COC(=O)N[C@H](C(=O)N1CCC[C@H]1c1nc(-c2ccc(-c3ccc(-c4c[nH]c([C@@H]5CCCN5C(=O)[C@@H](NC(=O)OC)C(C)C)n4)cc3)cc2)c[nH]1)C(C)C [BMS 790052, Dimethyl (2S,2′S)-1,1′-((2S,2′S)-2,2′-(4,4′-(biphenyl-4,4′-diyl)bis(1H-imidazole-4,2-diyl))bis(pyrrolidine-2,1-diyl))bis(3-methyl-1-oxobutane-2,1-diyl)dicarbamate]
[1]; [10]
  Efficacy, Antagonism vol: −25.5 μM^2% and −0.1 μM^2% and 0/−24.5; μM^2% and 18.46/−0.06 μM^2%
[1]; [11]
  Interaction: Positive
[3]; [12]
  Cytotoxicity, Antagonism vol: −21.9 μM^2%
  Cytotoxicity, Synergy vol: 0 μM^2%
[5]
  fold change in susceptibility, NS5A Y93H: 29.9 fold and 29.9 (32.7, 27.0) fold

## NC(=O)c1ncn([C@@H]2O[C@H](CO)[C@@H](O)[C@H]2O)n1 [Ribavirin, 1-[(2R,3R,4S,5R)-3,4-dihydroxy-5-(hydroxymethyl)oxolan-2-yl]-1H-1,2,4-triazole-3-carboxamide]
[1]
  Interaction: Positive
  antagonism volume: −292.6 μM^2%
  interaction in individual assay replicates: additive interaction; also recorded: highly antagonistic interaction

## C[C@@]1(O)[C@H](O)[C@@H](CO)O[C@H]1n1ccc(N)nc1=O [2′-C-Methylcytidine, 2′-C-methylcytidine]
[1]; in combination with SPC 3649, part of the replicates, listed as 2-methyl cytidine
  interaction in individual assay replicates: positive interactions; also recorded: slightly antagonistic interaction
[1]; [10]
  Efficacy, Antagonism vol: −27.6 μM^2%
  Efficacy, Synergy vol: 0 μM^2%
[1]; second drug in combination with miravirsen (SPC3649), 95% confidence interval, median (≧3 experiments) or individual values, listed as 2-methyl cytidine
  Efficacy, Synergy vol: 0.0 μM^2%
[1]; [11]
  Interaction: Positive
[1]; second drug in combination with miravirsen (SPC3649), overall, listed as 2-methyl cytidine
  Interaction: positive interaction
[3]; [12]
  Cytotoxicity, Antagonism vol: −0.67 μM^2%
  Cytotoxicity, Synergy vol: 0 μM^2%
[5]
  fold change in susceptibility, NS5A Y93H: 1.0 (1.2, 0.8) fold
[4]
  fold change in susceptibility, NS5B M423I: 1.0 (0.9, 1.1) fold
[6]
  fold change in susceptibility, NS3 A156T: 0.9 (1.0, 0.8) fold
[7]; listed as 2′Me-C
  fold change in susceptibility, NS5B S282T: 42.8 fold and 45.8 fold
[7]; listed as 2′Me—C
  fold change in susceptibility, NS5B S282T: 45.8 (49.3, 42.3) fold
[8]
  fold change in susceptibility, NS3 R155K: 0.8 (1.0, 0.6) fold

Reference: patent US20140113958A1, “HCV Combination Therapy” (priority 2011, published 2014)
